Reference: the supplement of paper PMC10307832

What was measured:
Assay in all cases: relative viability (nuclei count vs DMSO), 5 days (fraction); higher = more cells survive
Daporinad + Linsitinib = compound: O=C(/C=C/c1cccnc1)NCCCCC1CCN(C(=O)c2ccccc2)CC1 [Daporinad] + C[C@]1(O)C[C@@H](c2nc(-c3ccc4ccc(-c5ccccc5)nc4c3)c3c(N)nccn32)C1 [Linsitinib] (partner 1 µM)
How it was run: (§1)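 Lung cancer cell lines in 1536-well plates were dosed by pin tool the day after seeding, either with one drug alone or with a fixed anchor-drug dose plus five library-drug doses (not always all listed) in √10 steps. After 5 days, cells were fixed and their nuclei stained in one step (final 0.05% Triton X-100, 1% formaldehyde, 1 ug/ml Hoechst), then counted on 4× images. Relative viability is the nuclei count in treated wells divided by that in vehicle wells. Values are medians of duplicate plates.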

Daporinad + Navitoclax = compound: O=C(/C=C/c1cccnc1)NCCCCC1CCN(C(=O)c2ccccc2)CC1 [Daporinad] + CC1(C)CCC(c2ccc(Cl)cc2)=C(CN2CCN(c3ccc(C(=O)NS(=O)(=O)c4ccc(N[C@H](CCN5CCOCC5)CSc5ccccc5)c(S(=O)(=O)C(F)(F)F)c4)cc3)CC2)C1 [Navitoclax] (partner 0.5 µM)
How it was run: as §1

R406 + Tozasertib = compound: COc1cc(Nc2ncc(F)c(Nc3ccc4c(n3)NC(=O)C(C)(C)O4)n2)cc(OC)c1OC [R406] + Cc1cc(Nc2cc(N3CCN(C)CC3)nc(Sc3ccc(NC(=O)C4CC4)cc3)n2)n[nH]1 [Tozasertib] (partner 0.1 µM)
How it was run: as §1

Daporinad + Palbociclib = compound: O=C(/C=C/c1cccnc1)NCCCCC1CCN(C(=O)c2ccccc2)CC1 [Daporinad] + CC(=O)c1c(C)c2cnc(Nc3ccc(N4CCNCC4)cn3)nc2n(C2CCCC2)c1=O [Palbociclib] (partner 0.5 µM)
How it was run: as §1

| Cell Line | relative viability (Daporinad + Linsitinib; first compound 0.0005 µM) | relative viability (Daporinad + Linsitinib; first compound 0.001581 µM) | relative viability (Daporinad + Linsitinib; first compound 0.005 µM) | relative viability (Daporinad + Linsitinib; first compound 0.01581 µM) | relative viability (Daporinad + Navitoclax; first compound 0.0005 µM) | relative viability (Daporinad + Navitoclax; first compound 0.001581 µM) | relative viability (Daporinad + Navitoclax; first compound 0.005 µM) | relative viability (Daporinad + Navitoclax; first compound 0.01581 µM) | relative viability (R406 + Tozasertib; first compound 0.08 µM) | relative viability (R406 + Tozasertib; first compound 0.253 µM) | relative viability (R406 + Tozasertib; first compound 0.8 µM) | relative viability (R406 + Tozasertib; first compound 8 µM) | relative viability (Daporinad + Palbociclib; first compound 0.0005 µM) | relative viability (Daporinad + Palbociclib; first compound 0.001581 µM) | relative viability (Daporinad + Palbociclib; first compound 0.005 µM) | relative viability (Daporinad + Palbociclib; first compound 0.01581 µM) | relative viability (R406 + Tozasertib; first compound 2.53 µM) |
| --- | --- | --- | --- | --- | --- | --- | --- | --- | --- | --- | --- | --- | --- | --- | --- | --- | --- |
| NCI-H23 | 0.699 | 0.518 | 0.537 | 0.279 | 0.83 | 0.637 | 0.658 | 0.447 | 0.35 | 0.394 | 0.511 | 0.148 | 0.578 | 0.467 | 0.463 | 0.275 | – |
| NCI-H1395 | 1.01 | 1.23 | 0.999 | 1.44 | 1.03 | 1.14 | 1.13 | 1.26 | 0.714 | 0.77 | 0.734 | 0.519 | 0.659 | 0.618 | 0.531 | 0.718 | 0.647 |
| 201T | 0.998 | 0.973 | 1.04 | 1.02 | 1.23 | 1.19 | 1.21 | 1.2 | 1.02 | 1 | 0.986 | 0.523 | 0.379 | 0.347 | 0.329 | 0.375 | 0.939 |
| NCI-H1793 | 0.697 | 0.853 | 1.14 | 0.926 | 0.453 | 0.499 | 0.38 | 0.569 | 0.333 | 0.353 | 0.389 | 0.109 | 0.305 | 0.33 | 0.346 | 0.332 | 0.155 |
| NCI-H520 | 0.87 | 0.445 | 0.177 | 0.149 | 0.945 | 0.442 | 0.258 | 0.197 | 0.499 | 0.469 | 0.45 | 0.219 | 0.209 | 0.286 | 0.158 | 0.183 | 0.347 |
| NCI-H727 | 0.282 | 0.337 | 0.244 | 0.261 | 0.409 | 0.568 | 0.483 | 0.29 | 0.586 | 0.566 | 0.694 | 0.433 | 0.694 | 0.622 | 0.647 | 0.646 | 0.594 |
| HCC-15 | 0.79 | 0.943 | 0.926 | 0.928 | 0.661 | 0.776 | 0.716 | 0.764 | 0.437 | 0.484 | 0.458 | 0.208 | 0.692 | 0.815 | 0.829 | 0.755 | 0.483 |
| NCI-H460 | 0.759 | 0.928 | 0.818 | 0.777 | 1.09 | 1.32 | 0.978 | 0.855 | 0.493 | 0.486 | 0.481 | 0.264 | 0.153 | 0.191 | 0.236 | 0.169 | 0.344 |
| EPLC-272H | 1.11 | 1.32 | 1.31 | 1.4 | 1.22 | 1.47 | 1.28 | 1.38 | 0.206 | 0.242 | 0.403 | 0.111 | 0.338 | 0.307 | 0.697 | 0.351 | 0.177 |
